Measured values reported in patent publication US11058744B2, “Composition for treating prostate cancer” (GemVax & KAEL Co., Ltd., priority 2013, dated 2021).

Tests used:
LNCaP cell line = assay: Transwell migration assay on LNCaP cell line; assay type: cell-based, human; settings: medium containing docetaxel (3 nM), no Pep1
Method: The effects of Pep1 on cancer cell migration were evaluated by trans-well assay.
The cancer cell migration was evaluated by using the reagents and materials and the cell line incubation method which are described in connection with Example 1. A migration assay method used for this experiment is as follows.
The LNCaP cell line was incubated on a 6-well plate overnight, and then treated with various concentrations of Pep1 (0, 1, 10, 30 μM) and incubated for 24 hours. Thereafter, the resultant LNCaP cell line was seeded at the cell population of 1×10^4/well on a trans-well plate. Three hours after, the upper compartment of each well was removed, and cells that had migrated downwards were immobilized, stained, and quantified.
A separate experiment was further performed to identify cell migration when Pep1 was co-administered with docetaxel. The LNCaP cell line was incubated on a 6-well plate overnight, and then, treated with various concentrations of Pep1(0, 1, 3, 10, and 30 μM) and incubated for 24 hours. Additionally, the cell line was incubated in a growth medium containing docetaxel (3 nM) for 48 hours, and then, seeded on a trans-well plate at a cell population of 1×10^4/well. Three hours after, the upper compartment of each well was removed, and cells that had migrated downwards were immobilized, stained, and quantified. […]

[1] = test system: prostate cancer having a hormone tolerance; settings: Beer et al, 2001; cited from earlier work
prostate cancer = settings: administered together with docetaxel; Henly et al 2012; cited from earlier work

Compound | cancer cell migration (migrated cell number) (LNCaP cell line) | treatment efficiency [1] | anti-cancer effects (prostate cancer)
CC(=O)O[C@@]12CO[C@@H]1C[C@H](O)[C@@]1(C)C(=O)[C@H](O)C3=C(C)[C@@H](OC(=O)[C@H](O)[C@@H](NC(=O)OC(C)(C)C)c4ccccc4)C[C@@](O)([C@@H](OC(=O)c4ccccc4)[C@H]21)C3(C)C [docetaxel] | the cancer cell migration was increased | about 40% | –
Nc1cccc2c1CN(C1CCC(=O)NC1=O)C2=O (stereo not drawn) [lenalidomide] | – | – | anti-cancer effects are significantly increased
